We go through one compound from patent US20260283986A1, “NOVEL RAS INHIBITORS” (KHR Biotec GmbH, priority 2022, published 2026).

Counter-ions that a name gives are not always drawn.

Common to all, as to assay type: cell-based
One experiment deals with ASPC1 cells. The experiment is described as follows: Soft agar colony formation assay, colonies stained with MTT. The following applies: Homo sapiens; ASPC1, growth in soft agar, MTT absorbance at 570 nm, 3 independent experiments. As for the experimental part: (§1) Metabolic activity was quantified using Cell Proliferation Kit I (Roche, Basel, Switzerland). Cells were seeded in 96-well cell culture plates, using 5000 cells per well for NCI-H358 cells. After treatment, 10 μl of MTT solution was added and incubated for 2 h in CO2 incubator. Then 100 μl of solubilization buffer was added to each well and incubated overnight in CO2 incubator. Cell viability, assessed by the amount of metabolized MTT, was quantified by measuring absorbance at 570 nm. MTT assay for the growth of different tumor cell lines with RAS mutations in soft agar Alexandrine dihydrochloride. NCI-H358, H358, H2122, ASPC-1, HCT-116, T24 and HT1080 cells were used for the soft agar colony formation assay. After the treatment with Alexandrine dihydrochloride, the colonies were stained with MTT and the value was quantified by measuring absorbance at 570 nm after solubilization. The results represent mean±SSEM from 3 independent experiments.

Another experiment relates to HCT-116 cells. The description is as above. As to conditions: Homo sapiens; HCT-116, growth in soft agar, MTT absorbance at 570 nm, 3 independent experiments. As for the experimental part: as §1
In a further experiment the test system is HT1080 cells. The description is as above. The following applies: Homo sapiens, HT-1080; HT1080, growth in soft agar, MTT absorbance at 570 nm, 3 independent experiments. The method, then: as §1
In the next experiment the test system is NCI-H2122 cells. The description is as above. The following applies: Homo sapiens; NCI-H2122, growth in soft agar, MTT absorbance at 570 nm, 3 independent experiments. As for the experimental part: as §1
The test system of a further experiment is NCI-H358 cells. Described as above. As to conditions: Homo sapiens; NCI-H358, growth in soft agar, MTT absorbance at 570 nm, 3 independent experiments. The method, then: as §1
The next experiment has as its system T24 cells. The description is as above. The following applies: Homo sapiens, T-24; T24, growth in soft agar, MTT absorbance at 570 nm, 3 independent experiments. The method, then: as §1
For the next experiment, the system named is BaF3 KRAS G12C cells. The experiment is described as follows: MTT assay for cell viability in 96 well cell culture plate. As to conditions: Mus musculus, 48 h treatment. As for the experimental part:
(§2) FIGS. 4a) and 4b): MTT assay for cell viability in 96 well cell culture plate Cells were treated with Alexandrine dihydrochloride for 48 h and cell viability was evaluated by MTT assay. DMSO-treated cells were set as 1. The results shown are mean±SEM from 3 independent experiments.
On the technique in general: Formazan colour is commonly taken as a measure of viable cells.

The test system of experiment [1] is BaF3 KRAS G12C/Y96D cells. The description is as above. As to conditions: Mus musculus, 48 h treatment. As for the experimental part:
as §2

The subject of another experiment is SNF96.2 cells. The experiment can be described thus: RASOpathie-Model, MTT assay for cell viability in 96 well cell culture plate. The following applies: SNF96.2, 48 h treatment. As for the experimental part:
FIG. 5: RASOpathie-Model of Alexandrine dihydrochloride; MTT assay for cell viability in 96 well cell culture plate Cells were treated with Alexandrine dihydrochloride for 48 h and cell viability was evaluated by MTT assay. DMSO-treated cells were set as 1. The results shown are mean±SEM from 3 independent experiments.

The target of another experiment is HRAS G12V (Homo sapiens, UniProt P01112, G12V). The experiment is described as follows: NanoBit assay for RAS activation (LgBiT-RAS / SmBiT-CRAF RBD). The following applies: HRAS G12V with CRAF RBD, 2 h with inhibitor in serum free DMEM. The method, then: (§3) FIGS. 1a) and 1b): NanoBit assay for RAS activation (KRAS G12V, NRAS G12V, HRAS G12V) N-terminal LgBiT and C-terminal SmBiT construct was purchased from Promega and K, N and HRAS G12V (full length) was cloned with Xho I and Bgl II to LgBit and CRAF Ras binding domain (1-149) was cloned with EcoRI and Bgl II to SmBit. For transfections, 1 μg or 2 μg of (12 well/6 well) plasmids were transfected into cells with 0.5 mM of PEI reagent in 100 μl or 200 μl PBS. One day after transfection, cells were harvested and seeded into 96 well white plates, half area (Greiner). After an additional day the medium was changed to serum free DMEM and the cells were incubated for 2 h with inhibitor. NanoGlo assay was performed according to the manufacturer's instructions. The luminescence was measured using Tecan infinite (Tecan).

Another experiment addresses KRAS G12V (Homo sapiens, UniProt P01116, G12V). The description is as above. The following applies: KRAS G12V with CRAF RBD, 2 h with inhibitor in serum free DMEM. The method, then:
as §3

In a further experiment the target is NRAS G12V (Homo sapiens, UniProt P01111, G12V). Described as above. The following applies: NRAS G12V with CRAF RBD, 2 h with inhibitor in serum free DMEM. As for the experimental part: as §3
In experiment [2] the test system is KRAS mutants (G12V, G12C, G12D, G12C/Y96D). The experiment can be described thus: NanoBiT assay for the RAS GTP-loading in HeLa cells (LgBit-KRAS mutants / SmBit-CRAF-RBD). As to conditions: 2 h in serum-free DMEM, normalized to DMSO. The method, then: FIG. 3: NanoBit assay for RAS activation (G12V, G12C, G12D, G12C/Y96D,)
NanoBiT assay for the RAS GTP-loading was performed in HeLa cells transfected with LgBit-KRAS mutants and SmBit-CRAF-RBD. Cells were treated with Alexandrine dihydrochloride for 2 h in serum-free DMEM. After incubation, the substrate for NanoLuc was added, and the luminescence was measured in a multiplate reader. Data were normalized to cells transfected with the indicated mutant and exposed to DMSO for 2 h. DMSO-treated cells were set as 1. The bars represent mean±SEM from 3 independent experiments.

Chain of NRAS G12V (P01111 1-186 G12V): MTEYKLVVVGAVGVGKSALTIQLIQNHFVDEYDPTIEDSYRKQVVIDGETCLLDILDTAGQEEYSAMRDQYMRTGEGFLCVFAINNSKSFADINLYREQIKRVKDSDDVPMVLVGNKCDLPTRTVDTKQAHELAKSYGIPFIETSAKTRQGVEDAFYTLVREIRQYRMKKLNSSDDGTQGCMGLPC
Chain of HRAS G12V (P01112 1-186 G12V): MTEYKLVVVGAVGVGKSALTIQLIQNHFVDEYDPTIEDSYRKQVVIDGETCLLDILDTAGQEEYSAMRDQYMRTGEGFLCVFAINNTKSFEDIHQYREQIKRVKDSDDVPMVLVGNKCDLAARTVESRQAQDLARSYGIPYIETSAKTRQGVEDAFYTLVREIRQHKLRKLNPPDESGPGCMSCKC
Chain of KRAS G12V (P01116 1-186 G12V): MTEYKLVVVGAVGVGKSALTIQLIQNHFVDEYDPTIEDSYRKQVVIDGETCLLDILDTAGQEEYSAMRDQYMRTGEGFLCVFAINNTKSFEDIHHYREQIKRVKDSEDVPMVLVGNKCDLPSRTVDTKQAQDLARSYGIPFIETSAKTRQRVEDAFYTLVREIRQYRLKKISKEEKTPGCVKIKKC

`CCCCC(CC)CNC(=N)NC(=N)NCCCCCCNC(=N)NC(=N)NCC(CC)CCCC` (stereo not shown) [Alexandrine dihydrochloride, 1,1′-Hexamethylenebis[5-(2-ethylhex-1-yl)]biguanide dihydrochloride]: the half-inhibitory concentration (IC50) (in general, the concentration needed to halve the response being measured) in the experiment on ASPC1 cells was 1760 nM; with HCT-116 cells, 1910 nM; in the experiment with HT1080 cells it was 310 nM; in the experiment on NCI-H2122 cells, 1610 nM; in the experiment on NCI-H358 cells, 1280 nM; with T24 cells, 1700 nM. Also, the IC50 in the experiment on BaF3 KRAS G12C cells stood at 1170 nM; in [1] it was 1540 nM; in the experiment on SNF96.2 cells, 350 nM. Further, the “inhibition of H-RAS activation (NanoBit luminescence)” value against HRAS G12V was “inhibits”. Besides, the “inhibition of K-RAS activation (NanoBit luminescence)” value against KRAS G12V is on record as “inhibits”. In addition, on NRAS G12V, the “inhibition of N-RAS activation (NanoBit luminescence)” value is “inhibits”. The “inhibition of RAS activation of KRAS mutants (NanoBiT luminescence)” value in experiment [2] is “inhibits different RAS-isoforms”.
